Data from PMC12047801, “Disrupting the OTUD4-USP7 deubiquitinase complex to suppress herpesvirus replication: a novel antiviral strategy” (PLOS Pathogens, 2025).
Several values for one entry are separate records, joined by “and”; a condition that tells them apart may be missing. Identical values can stand only once. Like-named read-outs stand apart in the source and are kept apart here. Where a SMILES comes first, the peptide text is derived from it.

Columns and labels:
KSHV lytic replication = settings: cited from earlier work
Excerpt: In KSHV-associated cancers, such as Kaposi’s sarcoma (KS), tumor cells predominantly display latent viral infection, while spontaneous reactivation takes place in only 1–3% of infected cells. […] Despite the low percentage of lytic cells, lytic replication plays a critical role in KS pathogenesis. Firstly, the production and release of infectious KSHV particles sustain the latently infected cell population by compensating for episomal loss duri ... || KSHV is the etiological agent of Kaposi’s sarcoma (KS) and primary effusion lymphoma (PEL), and contributes to other malignancies such as multicentric Castleman’s disease (MCD). […] Therefore, KSHV antiviral treatments, including those aimed at inhibiting lytic replication, are actively being developed. […] MMV1645152, identified from the Medicines for Malaria Venture (MMV) Pandemi ...

[1] = test system: KSHV lytic reactivation in SLK.iBAC-GFP cells; type: cell-based; settings: for IC50: Dox + sodium butyrate, mean ± s.d. of N = 3
Procedure: (A) Graphical illustration showing the rationale underlying our peptide design. (B) Surface Plasmon Resonance (SPR) analysis assessing the interaction of the USP7-TRAF domain with the designed peptides p2 and p8. (C) SLK.iBAC-GFP cells were induced with doxycycline (Dox, 1 μg/mL) and sodium butyrate (0.5 mM) in the presence of the Tat fusion peptides (100 μM). All the peptides were fused to an N-terminal Tat47-57 peptide ([…]) via a flexible GG linker. The supernatants containing infectious virions were collected 48 h post-induction and used to infect HEK293T cells. KSHV infectious units were calculated based on the percentage of GFP-positive cells determined by flow cytometry. Data are mean ± s.d. of N = 3 independent biological replicates. (D) SLK.iBAC-GFP cells were induced with doxycycline (Dox, 1 μg/mL) and sodium butyrate (0.5 mM) in the presence of increasing amount of p8 (0, 10, 50, 100 μM). KSHV infectious units were determined 48 h post-induction. Data are mean ± s.d. of N = 3 independent biological replicates. […] Data are mean ± s.d. of N = 3 independent biological replicates. […] Cell viability was assessed by measuring ATP levels 48 h post-induction. Data are mean ± s.d. of N = 3 independent biological replicates.
Peptides p1 to p12 (S1A Fig) were synthesized by Sangon Biotech (Shanghai, China) with 95% purity. The Tat-fused peptides in Fig 1C consisted of the corresponding peptides conjugated to the Tat47-57 peptide ([…]) and two glycine linker residues (QYAOBIO, Suzhou, China). The peptides p8-DRI (nssqsasqnvpprrrqrrkkrGy) and p2-DRI (iesndedavepprrrqrrkkrGy) were synthesized using D-amino acids in a retro-reversed sequence with 95% purity (QYAOBIO, Suzhou, China). The peptide p8-m ([…]) was synthesized with 95% purity (QYAOBIO, Suzhou, China). All the peptides were acetylated at the N-terminus and amidated at the C-terminus to mimic the native peptide structure. The peptides were dissolved in PBS to prepare 1 mM stock solutions for in vitro experiments and 5 mg/ml stock solutions for in vivo experiments.
SLK.iBAC-GFP cells were treated with Dox (1 μg/ml) and sodium butyrate (0.5 mM) to induce lytic reactivation in the presence of indicated peptides (100 μM). The supernatants were collected at the specified time points and used to infect HEK293T cells at appropriate dilutions. The infected cells were collected, fixed, and analyzed by flow cytometry 24 h post-infection. FlowJo 10.0 software was used to analyze the data, and KSHV infectious units were quantified based on the percentage of GFP-positive cells.

[2] = test system: lung inflammation in MHV68-infected C57BL/6 mice; type: in vivo; settings: Fig 5F, 5 mg/kg, 5 days post-infection, vs vehicle
Procedure: Fig 5 P8-DRI restricts MHV68 Infection in vivo. (A-B) MLF cells were infected with MHV68 (MOI, 0.01) and treated with the indicated peptides (100 µM). Viral titer was determined by plaque assays 48 h post-infection (A). Viral gene expression was assessed by RT-qPCR (B). Data are mean ± s.d. of N = 3 independent biological replicates. […] Data are mean ± s.d. of N = 3 independent biological replicates. (D-E) C57BL/6 mice were intranasally inoculated with MHV68 (4000 PFU) and administrated with p8-DRI (5 mg/kg of body weight) or vehicle control (n = 6 per group). Viral loads in lung tissues were quantified at 5 days post-infection (D). Viral gene expression in lung tissues was measured by RT-qPCR at 5 days post-infection (E). Data are mean ± s.d. of N = 6 independent biological replicates. […] Viral titers in lung tissues were determined at 5 days post-infection (G). Viral gene expression in lung tissues was assessed by RT-qPCR (H). […] (I) H&E staining of lung tissue sections from MHV68-infected Otud4^^fl/fl Cre-ERT2^-/- and Otud4^^fl/fl Cre-ERT2^+/- mice treated with p8-DRI or vehicle control, analyzed at 5 days post-infection. […]
Mouse lung tissue samples were fixed in 10% formalin solution (Sigma) overnight. […] The tissue sections were stained using standard H&E staining protocols and analyzed microscopically.

MHV68 in C57BL/6 mice [3] = experiment: Viral loads/titers in lungs of MHV68-infected C57BL/6 mice; type: in vivo; settings: 5 days post-infection
[4] = test system: MHV68 in Otud4fl/fl Cre-ERT2 mice; type: in vivo; settings: 5 mg/kg
USP7-TRAF domain = molecular target: T1, USP7-TRAF domain (Homo sapiens, UniProt Q93009); experiment: Surface plasmon resonance (SPR) analysis of peptide binding to USP7-TRAF
T1 construct: The TRAF domain of human and murine USP7 (1-208 aa) was subcloned into pGEX-6p-1; GST (N); made in house; host or cells: E. coli BL21 (DE3)

[5] = test system: lung pathology in MHV68-infected Otud4fl/fl Cre-ERT2 mice; type: in vivo; settings: for Histological score of lungs: Fig. 5I
MHV68 in C57BL/6 mice [6] = type: in vivo; settings: Fig 5E, 5 mg/kg, 5 days post-infection
Procedure: Fig 5 P8-DRI restricts MHV68 Infection in vivo. (A-B) MLF cells were infected with MHV68 (MOI, 0.01) and treated with the indicated peptides (100 µM). Viral titer was determined by plaque assays 48 h post-infection (A). Viral gene expression was assessed by RT-qPCR (B). Data are mean ± s.d. of N = 3 independent biological replicates. […] Data are mean ± s.d. of N = 3 independent biological replicates. (D-E) C57BL/6 mice were intranasally inoculated with MHV68 (4000 PFU) and administrated with p8-DRI (5 mg/kg of body weight) or vehicle control (n = 6 per group). Viral loads in lung tissues were quantified at 5 days post-infection (D). Viral gene expression in lung tissues was measured by RT-qPCR at 5 days post-infection (E). Data are mean ± s.d. of N = 6 independent biological replicates. (F) H&E staining of lung tissue sections from MHV68-infected mice treated with p8-DRI or vehicle 5 days post-infection. Scale bars, 500 µm (left) and 100 µm (right). […] Viral titers in lung tissues were determined at 5 days post-infection (G). Viral gene expression in lung tissues was assessed by RT-qPCR (H). […] (I) H&E staining of lung tissue sections from MHV68-infected Otud4^^fl/fl Cre-ERT2^-/- and Otud4^^fl/fl Cre-ERT2^+/- mice treated with p8-DRI or vehicle control, analyzed at 5 days post-infection. […]

[7] = test system: Kaposi's sarcoma (KS) progression; settings: cited from earlier work
[8] = test system: interaction between OTUD4 and USP7-TRAF; experiment: GST pull-down competition assay, human USP7-TRAF and FLAG-OTUD4; type: binding; settings: 100 μM, 4 h

T1 sequence (Q93009 1-208): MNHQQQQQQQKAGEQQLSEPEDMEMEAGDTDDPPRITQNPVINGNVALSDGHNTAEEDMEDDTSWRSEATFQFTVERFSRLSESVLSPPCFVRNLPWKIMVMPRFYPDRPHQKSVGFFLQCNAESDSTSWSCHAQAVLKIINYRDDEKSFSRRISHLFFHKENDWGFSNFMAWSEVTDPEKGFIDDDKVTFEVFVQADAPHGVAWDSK

For `Nc1nc(O)c(Br)c(-c2cccc(Cl)c2)n1` [MMV1645152], the “Inhibition of KSHV lytic replication (in words)” value (KSHV lytic replication) is given as “effectively blocking KSHV lytic replication”.

Work on `CC[C@@H](C)[C@@H](NC(C)=O)C(=O)N[C@H](CCC(=O)O)C(=O)N[C@H](CO)C(=O)N[C@H](CC(N)=O)C(=O)N[C@H](CC(=O)O)C(=O)N[C@H](CCC(=O)O)C(=O)N[C@H](CC(=O)O)C(=O)N[C@H](C)C(=O)N[C@@H](C(=O)N[C@H](CCC(=O)O)C(=O)N1CCC[C@@H]1C(=O)N1CCC[C@@H]1C(=O)N[C@H](CCCNC(=N)N)C(=O)N[C@H](CCCNC(=N)N)C(=O)N[C@H](CCCNC(=N)N)C(=O)N[C@H](CCC(N)=O)C(=O)N[C@H](CCCNC(=N)N)C(=O)N[C@H](CCCNC(=N)N)C(=O)N[C@H](CCCCN)C(=O)N[C@H](CCCCN)C(=O)N[C@H](CCCNC(=N)N)C(=O)NCC(=O)N[C@H](Cc1ccc(O)cc1)C(N)=O)C(C)C` [p2-DRI] (HELM PEPTIDE1{[ac].[dI].[dE].[dS].[dN].[dD].[dE].[dD].[dA].[dV].[dE].[dP].[dP].[dR].[dR].[dR].[dQ].[dR].[dR].[dK].[dK].[dR].G.[dY].[am]}$$$$V2.0) yielded an IC50 ([1]; SLK.iBAC-GFP cells) of 67.4 ± 34.1 µM.

In the case of `Cc1c(O)cccc1C(=O)N[C@@H](CSc1ccccc1)[C@H](O)CN1C[C@H]2CCCC[C@H]2C[C@H]1C(=O)NC(C)(C)C` [Nelfinavir], the “Inhibition of KSHV virion production (in words)” value (KSHV lytic replication) is listed as “prevents mature virion production”.

In the case of `CC(=O)N[C@H](CC(N)=O)C(=O)N[C@H](CO)C(=O)N[C@H](CO)C(=O)N[C@H](CCC(N)=O)C(=O)N[C@H](CO)C(=O)N[C@H](C)C(=O)N[C@H](CO)C(=O)N[C@H](CCC(N)=O)C(=O)N[C@H](CC(N)=O)C(=O)N[C@@H](C(=O)N1CCC[C@@H]1C(=O)N1CCC[C@@H]1C(=O)N[C@H](CCCNC(=N)N)C(=O)N[C@H](CCCNC(=N)N)C(=O)N[C@H](CCCNC(=N)N)C(=O)N[C@H](CCC(N)=O)C(=O)N[C@H](CCCNC(=N)N)C(=O)N[C@H](CCCNC(=N)N)C(=O)N[C@H](CCCCN)C(=O)N[C@H](CCCCN)C(=O)N[C@H](CCCNC(=N)N)C(=O)NCC(=O)N[C@H](Cc1ccc(O)cc1)C(N)=O)C(C)C` [p8-DRI] (HELM PEPTIDE1{[ac].[dN].[dS].[dS].[dQ].[dS].[dA].[dS].[dQ].[dN].[dV].[dP].[dP].[dR].[dR].[dR].[dQ].[dR].[dR].[dK].[dK].[dR].G.[dY].[am]}$$$$V2.0), the IC50 ([1]; SLK.iBAC-GFP cells) is reported as 9.23 ± 1.29 µM, the “Lung inflammation and immune cell infiltration (in words)” value [2] is reported as “less inflammation and immune cell infiltration in the lungs” and the “Viral titers in lung tissues (in words)” value (MHV68 in C57BL/6 mice [3]; Fig 5D, 5 mg/kg, vs vehicle) is reported as “lower viral titers in lung tissues”. For the same compound, the “Viral loads in lung tissues” value (MHV68 in C57BL/6 mice [3]; Fig. 5D, 5 mg/kg p8-DRI, MHV68 4000 PFU intranasal, single animals, one line per mouse (n = 6)) was 12.8424 and 18.8481 and 2.1041 and 7.7972 and 13.617 and 0.6389, the “Antiviral effect in OTUD4-deficient mice (in words)” value ([4]; Figs 5G-5I, Otud4fl/fl Cre-ERT2+/- + tamoxifen) was “abolished in OTUD4-deficient mice” and the “Viral titers in lungs of OTUD4-replete mice (in words)” value ([4]; Otud4fl/fl Cre-ERT2-/-, vs vehicle) was “lower viral titers in lung tissues”. The “Binding affinity for USP7-TRAF relative to p8 (in words)” value (USP7-TRAF domain; N = 3 (S5H Fig)) was “remained comparable to that of p8”, the “Histological score of lungs” value ([5]; OTUD4 KO mice, replicate 1) was 1 and the “Histological score of lungs” value ([5]; OTUD4 KO mice, replicate 2) was 1. For the same compound, the “Histological score of lungs” value ([5]; OTUD4 KO mice, replicate 3) was 1, the “Histological score of lungs” value ([5]; OTUD4 KO mice, replicate 4) was 2 and the “Histological score of lungs” value ([5]; OTUD4 KO mice, replicate 5) was 3. For the same compound, the “Histological score of lungs” value ([5]; OTUD4 WT mice, replicate 1) was 1, the “Histological score of lungs” value ([5]; OTUD4 WT mice, replicate 2) was 1 and the “Histological score of lungs” value ([5]; OTUD4 WT mice, replicate 3) was 1. The “Histological score of lungs” value ([5]; OTUD4 WT mice, replicate 4) was 2, the “Histological score of lungs” value ([5]; OTUD4 WT mice, replicate 5) was 3 and the “Viral pathology in OTUD4-replete mice (in words)” value ([5]; Otud4fl/fl Cre-ERT2-/-, 5 mg/kg, vs vehicle) was “reduced viral pathology”. For the same compound, the “MHV68 viral gene transcription (ORF50, ORF9, ORF25) in lungs (in words)” value (MHV68 in C57BL/6 mice [6]) was “significantly reduced”.

For `CCc1cc(-c2n[nH]c(C)c2-c2ccc3c(c2)OCCO3)c(O)cc1O` [CCT018159], the “Inhibition of KSHV lytic replication and virion production (in words)” value (KSHV lytic replication; UAP56 ATPase inhibitor) is listed as “successfully blocks KSHV lytic replication and infectious virion production”.

For `Nc1nc(O)c2ncn(COC(CO)CO)c2n1` [Ganciclovir], the “Inhibition of KSHV lytic replication (in words)” value (KSHV lytic replication; nucleoside analogue) is listed as “inhibits KSHV lytic replication” and the “Prevention of KS progression (in words)” value [7] is listed as “remarkable efficacy in randomized clinical trials for preventing KS progression”.

With Ac-YGRKKRRQRRRGGEVADEDNSEI-NH2 [p2] the “IC50, KSHV lytic reactivation (in words)” value ([1]; SLK.iBAC-GFP cells, Tat-fused peptide) was “could not be determined due to its low antiviral activity”, the “Inhibition of KSHV lytic reactivation (in words)” value ([1]; Tat-fused peptides, 100 μM or dose series, 48 h post-induction) was “no significant inhibition” and the “Disruption of OTUD4/USP7-TRAF interaction (in words)” value [8] was “failed to disrupt the interaction between USP7-TRAF and OTUD4”. For the same compound, the “Binding to the USP7-TRAF domain (in words)” value (USP7-TRAF domain) was “specifically bound to the USP7-TRAF domain”.
